The source of these data is ChEMBL document CHEMBL1152855, “Regioselective synthesis of dispiro[1H-indene-2,3'-pyrrolidine-2',3''-[3H]indole]-1,2''(1''H)-diones of potential anti-tumor properties” (2009).

Common to all, as to format: functional
One test has as its system EKVX. Briefly: Growth inhibition of human EKVX cells at 10 uM after 48 hrs by sulforhodamine B assay. The note with it: values are per cent of control. (In SRB staining, fixed cells bind dye roughly in proportion to their protein.)
The next test relates to HOP-92. Briefly: Growth inhibition of human HOP92 cells at 10 uM after 48 hrs by sulforhodamine B assay. The settings on record: HOP-92, 48 h, read-out: GI.
Another test has as its system NCI-H23. Briefly: Growth inhibition of human NCI-H23 cells at 10 uM after 48 hrs by sulforhodamine B assay. The note with it: NCI-H23, 48 h, values are per cent of control.
In the next test the test system is NCI-H322M. Briefly: Growth inhibition of human NCI-H322M cells at 10 uM after 48 hrs by sulforhodamine B assay. The settings on record: values are per cent of control.
In the next test the test system is COLO 205. Description: Growth inhibition of human COLO205 cells at 10 uM after 48 hrs by sulforhodamine B assay. The note with it: COLO 205, 48 h, values are per cent of control.
A further test concerns HCC 2998. Description: Growth inhibition of human HCC2998 cells at 10 uM after 48 hrs by sulforhodamine B assay. The note with it: HCC 2998, 48 h, values are per cent of control.
For another test, the system named is HT-29. Briefly: Growth inhibition of human HT-29 cells at 10 uM after 48 hrs by sulforhodamine B assay. The note with it: HT-29, 48 h, values are per cent of control.
A short description of test [1]: Growth inhibition of human Hs 578T cells at 10 uM after 48 hrs by sulforhodamine B assay. The note with it: values are per cent of control.
The subject of the next test is MDA-MB-231. Description: Growth inhibition of human MDA-MB-231 cells at 10 uM after 48 hrs by sulforhodamine B assay. The note with it: MDA-MB-231, 48 h, values are per cent of control.
A further test has as its system NCI/ADR-RES. Briefly: Growth inhibition of human NCI/ADR-RES cells at 10 uM after 48 hrs by sulforhodamine B assay. The note with it: values are per cent of control.
The next test concerns HL-60(TB). Description: Growth inhibition of human HL-60(TB) cells at 10 uM after 48 hrs by sulforhodamine B assay. The note with it: HL-60, 48 h, read-out: GI.
A further test concerns MOLT-4. Briefly: Growth inhibition of human MOLT4 cells at 10 uM after 48 hrs by sulforhodamine B assay. The note with it: MOLT-4, 48 h, values are per cent of control.
In the next test the test system is A498. Briefly: Growth inhibition of human A498 cells at 10 uM after 48 hrs by sulforhodamine B assay. The settings on record: A498, 48 h, values are per cent of control.
The test system of another test is SN12C. Description: Growth inhibition of human SN12C cells at 10 uM after 48 hrs by sulforhodamine B assay. The settings on record: values are per cent of control.
Test [2] concerns Rattus norvegicus. Briefly: Antiinflammatory activity against carrageenan-induced paw edema in Wister albino rat assessed as inhibition of edema at 50 mg/kg, ip administered 1 hr prior to carrageenan challenge measured after 4 hrs relative to indomethacin. The note with it: route intraperitoneal. (The carrageenan paw model is a standard test of acute inflammation.)
A further test relates to LOX IMVI. Briefly: Growth inhibition of human LOXIMVI cells at 10 uM after 48 hrs by sulforhodamine B assay. The settings on record: values are per cent of control.
The subject of another test is SK-MEL-2. Description: Growth inhibition of human SK-MEL-2 cells at 10 uM after 48 hrs by sulforhodamine B assay. The note with it: SK-MEL-2, 48 h, read-out: GI.
For another test, the system named is SK-MEL-5. Description: Growth inhibition of human SK-MEL-5 cells at 10 uM after 48 hrs by sulforhodamine B assay. The note with it: SK-MEL-5, 48 h, values are per cent of control.
The next test concerns UACC-257. Description: Growth inhibition of human UACC257 cells at 10 uM after 48 hrs by sulforhodamine B assay. The note with it: UACC-257, 48 h, values are per cent of control.
A further test relates to SF-295. Description: Growth inhibition of human SF295 cells at 10 uM after 48 hrs by sulforhodamine B assay. The settings on record: SF-295, 48 h, values are per cent of control.
Another test concerns SF-539. Briefly: Growth inhibition of human SF539 cells at 10 uM after 48 hrs by sulforhodamine B assay. The note with it: SF-539, 48 h, values are per cent of control.
Test [3] relates to Rattus norvegicus. Description: Antiinflammatory activity against carrageenan-induced paw edema in Wister albino rat assessed as inhibition of edema at 50 mg/kg, ip administered 1 hr prior to carrageenan challenge measured after 1 hr relative to control. The note with it: route intraperitoneal.
Test [4] relates to Rattus norvegicus. Description: Antiinflammatory activity against carrageenan-induced paw edema in Wister albino rat assessed as inhibition of edema at 50 mg/kg, ip administered 1 hr prior to carrageenan challenge measured after 2 hrs relative to control. The settings on record: route intraperitoneal.

SMILES strings stand for the structures.

As for `[3H]N1C(=O)[C@@]2(c3ccccc31)N(C)C[C@@H](c1cccs1)[C@@]21Cc2ccccc2C1=O`, the growth, % of control at 10 µM with EKVX was found to be 97.5%; in the test with NCI-H23, 92%; with NCI-H322M, 98.9%; with COLO 205, 120%; in the test with HCC 2998, 103%; in the test with HT-29, 99.6%. In addition, the growth, % of control at 10 µM in test [1] turned out to be 69.8%; with MDA-MB-231, 78.3%; in the test with NCI/ADR-RES, 97.4%; in the test on HL-60(TB), 89.7%; in the test with MOLT-4, 67.7%; in the test on A498 it was 102%. For the same compound, the growth, % of control at 10 µM stood at 99.6% in the test with SN12C; 80% in the test with LOX IMVI; 114% in the test on SK-MEL-5; 65% in the test on UACC-257; 105% in the test with SF-295; 109% in the test on SF-539. Further, the inhibition of growth at 10 µM with HOP-92 was determined as 72.9%; in the test on SK-MEL-2, 6.58%. The activity relative to indomethacin in the test with Rattus norvegicus [2] was 41%. The inhibition in vivo at 50 mg/kg in the test with Rattus norvegicus [3] came out at 49.9%; in the test on Rattus norvegicus [4] it was 39.1%.

Turning to `[3H]N1C(=O)[C@@]2(c3ccccc31)N(C)C[C@@H](c1ccc(OC)cc1)[C@@]21Cc2ccccc2C1=O`, the growth, % of control at 10 µM in the test on EKVX was determined as 92.4%; with NCI-H23 it was 89.3%; with NCI-H322M, 111%; in the test on COLO 205, 100%; in the test with HCC 2998 it was 76.7%; in the test with HT-29, 138%. For the same compound, the growth, % of control at 10 µM was found to be 16.8% in [1]; 74.4% with MDA-MB-231; 89.4% in the test on NCI/ADR-RES; 72.8% with HL-60(TB); 79.8% in the test with MOLT-4; 105% in the test with A498. Besides, the growth, % of control at 10 µM with SN12C came out at 105%; in the test with LOX IMVI, 80.5%; in the test with SK-MEL-5, 101%; in the test on UACC-257, 99.3%; in the test on SF-295, 103%; in the test with SF-539, 101%. The inhibition of growth at 10 µM in the test with HOP-92 came out at 62.5%; in the test on SK-MEL-2 it was 8.7%. For the same compound, the activity relative to indomethacin with Rattus norvegicus [2] was determined as 45%. Besides, the inhibition in vivo at 50 mg/kg in the test on Rattus norvegicus [3] came out at 41.2%; in the test with Rattus norvegicus [4], 17.5%.

Take `[3H]C([3H])([3H])N1C(=O)[C@@]2(c3ccccc31)N(C)C[C@@H](c1ccc(OC)cc1)[C@@]21Cc2ccccc2C1=O`: the growth, % of control at 10 µM in the test with EKVX was 67.3%; with NCI-H23 it was 84.5%; with NCI-H322M it was 124%; in the test with COLO 205, 104%; with HCC 2998 it was 104%; with HT-29, 66.9%. In addition, the growth, % of control at 10 µM in test [1] was -4.27%; with MDA-MB-231, 94.3%; in the test on NCI/ADR-RES, 96%; in the test on HL-60(TB), 170%; in the test on MOLT-4, 107%; with A498 it was 95.2%. For the same compound, the growth, % of control at 10 µM is 89.1% in the test on SN12C; 78.5% with LOX IMVI; 88.1% in the test with SK-MEL-5; 88.7% in the test on UACC-257; 89.1% in the test with SF-295; 99.9% with SF-539. Besides, the figures for the inhibition of growth at 10 µM in the test with HOP-92 and in the test on SK-MEL-2 were 47.1% and -6.92%, respectively. The activity relative to indomethacin in the test with Rattus norvegicus [2] is 8%. Moreover, the results for the inhibition in vivo at 50 mg/kg in the test on Rattus norvegicus [3] and in the test with Rattus norvegicus [4] were 46.9% and 20.2%, respectively.

Regarding `[3H]N1C(=O)[C@@]2(c3ccccc31)N(C)C[C@@H](c1ccc(Cl)cc1)[C@@]21Cc2ccccc2C1=O`, the growth, % of control at 10 µM is 52.5% with EKVX; 75% in the test with NCI-H23; 104% in the test on NCI-H322M; 84.8% in the test with COLO 205; 95.7% in the test with HCC 2998; 73.8% with HT-29. Besides, the growth, % of control at 10 µM in [1] was -4.92%; with MDA-MB-231, 75.1%; in the test on NCI/ADR-RES, 64%; in the test with HL-60(TB), 76.7%; in the test with MOLT-4, 57%; in the test with A498 it was 61.9%. Further, the growth, % of control at 10 µM amounted to 79.5% in the test on SN12C; 65.2% in the test on LOX IMVI; 112% in the test with SK-MEL-5; 34.5% in the test on UACC-257; 31.4% with SF-295; 107% in the test with SF-539. In addition, the inhibition of growth at 10 µM in the test with HOP-92 is 50.2%; in the test with SK-MEL-2, -6.14%. In addition, the activity relative to indomethacin with Rattus norvegicus [2] worked out at 32%. Besides, the inhibition in vivo at 50 mg/kg amounted to 27.9% in the test on Rattus norvegicus [3] and 28.4% with Rattus norvegicus [4].

Take `[3H]C([3H])([3H])N1C(=O)[C@@]2(c3ccccc31)N(C)C[C@@H](c1cccs1)[C@@]21Cc2ccccc2C1=O`: the growth, % of control at 10 µM stood at 107% in the test on EKVX; 92% in the test with NCI-H23; 89.3% with NCI-H322M; 107% in the test with COLO 205; 104% in the test with HCC 2998; 97.5% in the test on HT-29. The growth, % of control at 10 µM in test [1] turned out to be 21.1%; in the test with MDA-MB-231 it was 84.3%; in the test on NCI/ADR-RES, 98.5%; with HL-60(TB), 70%; in the test with MOLT-4, 72.2%; in the test on A498 it was 103%. Also, the growth, % of control at 10 µM in the test on SN12C came out at 105%; with LOX IMVI it was 85.3%; in the test with SK-MEL-5 it was 112%; in the test with UACC-257, 52.6%; in the test on SF-295 it was 60.4%; with SF-539, 112%. Besides, the inhibition of growth at 10 µM in the test on HOP-92 is 69.2%; in the test on SK-MEL-2 it was -5.11%. Moreover, the activity relative to indomethacin in the test with Rattus norvegicus [2] stood at 27%. For the same compound, the inhibition in vivo at 50 mg/kg in the test on Rattus norvegicus [3] came to 33%; with Rattus norvegicus [4], 10.8%.

As for `[3H]C([3H])([3H])N1C(=O)[C@@]2(c3ccccc31)N(C)C[C@@H](c1ccc(Cl)cc1)[C@@]21Cc2ccccc2C1=O`, the growth, % of control at 10 µM in the test on EKVX was determined as 72.6%; in the test on NCI-H23 it was 58%; with NCI-H322M it was 106%; in the test with COLO 205, 70.5%; with HCC 2998, 88%; with HT-29 it was 46.1%. In addition, the growth, % of control at 10 µM was found to be 55.2% in test [1]; 79.3% with MDA-MB-231; 79.4% in the test with NCI/ADR-RES; 87.5% in the test with MOLT-4; 82.3% in the test on A498; 86.5% with SN12C. In addition, the growth, % of control at 10 µM in the test on LOX IMVI was 72.2%; with SK-MEL-5 it was 87%; in the test on UACC-257 it was 42.6%; in the test with SF-295, 65%; in the test on SF-539 it was 90.5%. Moreover, the figures for the inhibition of growth at 10 µM in the test on HOP-92 and in the test on SK-MEL-2 were 25.1% and -11.1%, respectively. In addition, in the test with Rattus norvegicus [2], the activity relative to indomethacin was found to be 18%. Further, the values for the inhibition in vivo at 50 mg/kg in the test with Rattus norvegicus [3] and in the test on Rattus norvegicus [4] were 47.2% and 36.3%, respectively.

A word on the inhibition in vivo: it is the share of the control response that was lost under treatment.
